From ChEMBL document CHEMBL3992518, “Peptide Macrocycle Inhibitor of Coagulation Factor XII with Subnanomolar Affinity and High Target Selectivity” (J Med Chem, 2017)
The source made the active and inactive calls. The calls are words filed in the database; no cut-off is given here. *1 amine or outer side, *2 acyl side, *3 side chain or, on linkers, in order; H or OH if unused. Where a SMILES comes first, the peptide text is derived from it. Bridges are numbered along the chain shown (N, C = ends). TATA = O=C(CC[*:1])N1CN(C(=O)CC[*:2])CN(C(=O)CC[*:3])C1

Tests used:
Coagulation factor XII = target: T1, Coagulation factor XII (Homo sapiens, UniProt P00748); experiment: Inhibition of human beta factor 12a using fluorogenic substrate Boc-Gln-Gly-Arg-AMC preincubated for 10 mins followed by addition of substrate measured every min for 30 mins
T1 sequence (P00748 whole entry): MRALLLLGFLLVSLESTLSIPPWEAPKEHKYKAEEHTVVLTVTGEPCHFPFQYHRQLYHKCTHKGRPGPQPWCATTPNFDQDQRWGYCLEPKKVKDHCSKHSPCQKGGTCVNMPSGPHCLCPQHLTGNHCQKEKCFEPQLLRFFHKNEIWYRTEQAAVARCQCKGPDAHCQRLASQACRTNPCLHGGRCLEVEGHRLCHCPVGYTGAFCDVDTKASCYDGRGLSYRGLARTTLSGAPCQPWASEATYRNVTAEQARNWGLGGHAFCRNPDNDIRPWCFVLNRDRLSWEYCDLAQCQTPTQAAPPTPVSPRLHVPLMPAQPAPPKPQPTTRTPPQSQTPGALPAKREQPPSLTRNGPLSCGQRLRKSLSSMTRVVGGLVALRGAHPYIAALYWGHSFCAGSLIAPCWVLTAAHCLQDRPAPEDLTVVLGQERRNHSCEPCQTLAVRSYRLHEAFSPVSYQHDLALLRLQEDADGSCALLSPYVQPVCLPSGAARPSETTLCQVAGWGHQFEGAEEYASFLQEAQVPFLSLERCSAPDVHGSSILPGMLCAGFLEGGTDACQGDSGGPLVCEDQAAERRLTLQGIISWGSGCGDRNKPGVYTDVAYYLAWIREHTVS

[1] = Half life in human citrated plasma at 10 uM by mass spectrophotometric analysis; assay type: ADME, cell-free
Homo sapiens [2] = species: Homo sapiens; experiment: Inhibition of human trypsin at 40 uM using fluorogenic substrate Z-Gly-Gly-Arg-AMC
Plasma kallikrein [3] = target: T2, Plasma kallikrein (Homo sapiens, UniProt P03952); experiment: Inhibition of human plasma kallikrein at 40 uM using fluorogenic substrate Z-Phe-Arg-AMC
Plasma [4] = experiment: Anticoagulant activity in human plasma assessed as concentration required to double activated partial thromboplastin time by coagulation analyser; assay type: functional
Plasma [5] = experiment: Anticoagulant activity in human plasma assessed as change in prothrombin time up to 40 uM by coagulation analyser; assay type: functional, cell-free
[6] = target: Coagulation factor XI (Homo sapiens) (UniProt P03951); experiment: Inhibition of human factor 11a at 40 uM using fluorogenic substrate Boc-Phe-Ser-Arg-AMC
[7] = target: Plasminogen (Homo sapiens) (UniProt P00747); experiment: Inhibition of human plasmin at 40 uM using fluorogenic substrate H-D-Val-Leu-Lys-AMC
[8] = target: Urokinase-type plasminogen activator (Homo sapiens) (UniProt P00749); experiment: Inhibition of human uPa at 40 uM using fluorogenic substrate Z-Gly-Gly-Arg-AMC
[9] = target: Tissue-type plasminogen activator (Homo sapiens) (UniProt P00750); experiment: Inhibition of human tPa at 40 uM using fluorogenic substrate Z-Gly-Gly-Arg-AMC
[10] = target: Prothrombin (Homo sapiens) (UniProt P00734); experiment: Inhibition of human thrombin at 40 uM using fluorogenic substrate Z-Gly-Gly-Arg-AMC
[11] = target: Coagulation factor X (Homo sapiens) (UniProt P00742); experiment: Inhibition of human factor 10a at 40 uM using fluorogenic substrate D-Phe-Pro-Arg-ANSNH-C4H9
[12] = target: T3, Coagulation factor VII (Homo sapiens) (UniProt P08709); experiment: Inhibition of human factor 7a at 40 uM using fluorogenic substrate D-Phe-Pro-Arg-ANSNH-C4H9
T3 sequence (whole entry): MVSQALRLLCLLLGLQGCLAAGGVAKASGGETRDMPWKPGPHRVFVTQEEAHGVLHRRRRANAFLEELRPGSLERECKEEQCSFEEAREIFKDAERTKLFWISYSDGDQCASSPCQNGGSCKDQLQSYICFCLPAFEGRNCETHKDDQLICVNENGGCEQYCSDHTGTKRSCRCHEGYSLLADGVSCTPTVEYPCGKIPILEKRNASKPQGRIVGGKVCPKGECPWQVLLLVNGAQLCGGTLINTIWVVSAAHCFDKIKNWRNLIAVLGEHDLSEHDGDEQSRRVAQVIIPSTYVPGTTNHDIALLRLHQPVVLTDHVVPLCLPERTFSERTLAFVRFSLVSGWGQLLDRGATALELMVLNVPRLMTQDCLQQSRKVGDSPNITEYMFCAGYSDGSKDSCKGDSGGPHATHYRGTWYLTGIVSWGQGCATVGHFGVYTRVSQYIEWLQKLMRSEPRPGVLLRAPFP

Homo sapiens [13] = species: Homo sapiens; experiment: Selectivity for human beta-factor 12a over human trypsin
Homo sapiens [14] = species: Homo sapiens; experiment: Selectivity for human beta-factor 12a over human factor 11a
Homo sapiens [15] = species: Homo sapiens; experiment: Selectivity for human beta-factor 12a over human plasmin
Homo sapiens [16] = species: Homo sapiens; experiment: Selectivity for human beta-factor 12a over human uPa
Homo sapiens [17] = species: Homo sapiens; experiment: Selectivity for human beta-factor 12a over human tPa
Homo sapiens [18] = species: Homo sapiens; experiment: Selectivity for human beta-factor 12a over human thrombin
Homo sapiens [19] = species: Homo sapiens; experiment: Selectivity for human beta factor 12a over human plasma kallikrein
Homo sapiens [20] = species: Homo sapiens; experiment: Selectivity for human beta-factor 12a over human factor 10a
Homo sapiens [21] = species: Homo sapiens; experiment: Selectivity for human beta-factor 12a over human factor 7a
[22] = Inhibition of human trypsin using fluorogenic substrate Z-Gly-Gly-Arg-AMC
Plasma kallikrein [23] = target: T2, Plasma kallikrein; experiment: Inhibition of human plasma kallikrein using fluorogenic substrate Z-Phe-Arg-AMC

T2 sequence (P03952 20-390 limits assumed): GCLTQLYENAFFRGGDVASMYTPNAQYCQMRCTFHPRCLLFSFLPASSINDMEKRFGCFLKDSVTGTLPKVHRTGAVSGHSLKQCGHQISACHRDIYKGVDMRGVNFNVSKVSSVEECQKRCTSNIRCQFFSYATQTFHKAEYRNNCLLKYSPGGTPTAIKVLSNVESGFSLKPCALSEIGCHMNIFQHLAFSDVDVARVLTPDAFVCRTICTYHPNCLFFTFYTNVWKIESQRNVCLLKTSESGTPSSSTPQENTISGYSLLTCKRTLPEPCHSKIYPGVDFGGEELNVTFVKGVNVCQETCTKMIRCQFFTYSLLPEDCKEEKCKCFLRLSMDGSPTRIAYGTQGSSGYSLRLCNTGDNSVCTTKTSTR
T2 sequence (P03952 391-638 limits assumed): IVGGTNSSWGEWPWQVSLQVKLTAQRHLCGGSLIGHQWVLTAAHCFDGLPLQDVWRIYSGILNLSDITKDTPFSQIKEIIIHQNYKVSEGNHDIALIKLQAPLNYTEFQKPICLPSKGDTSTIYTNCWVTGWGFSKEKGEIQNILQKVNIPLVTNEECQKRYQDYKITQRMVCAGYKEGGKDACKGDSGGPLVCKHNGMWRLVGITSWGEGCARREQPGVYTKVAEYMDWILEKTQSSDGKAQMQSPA
Chain of Plasminogen (Homo sapiens) (P00747 97-580 limits assumed): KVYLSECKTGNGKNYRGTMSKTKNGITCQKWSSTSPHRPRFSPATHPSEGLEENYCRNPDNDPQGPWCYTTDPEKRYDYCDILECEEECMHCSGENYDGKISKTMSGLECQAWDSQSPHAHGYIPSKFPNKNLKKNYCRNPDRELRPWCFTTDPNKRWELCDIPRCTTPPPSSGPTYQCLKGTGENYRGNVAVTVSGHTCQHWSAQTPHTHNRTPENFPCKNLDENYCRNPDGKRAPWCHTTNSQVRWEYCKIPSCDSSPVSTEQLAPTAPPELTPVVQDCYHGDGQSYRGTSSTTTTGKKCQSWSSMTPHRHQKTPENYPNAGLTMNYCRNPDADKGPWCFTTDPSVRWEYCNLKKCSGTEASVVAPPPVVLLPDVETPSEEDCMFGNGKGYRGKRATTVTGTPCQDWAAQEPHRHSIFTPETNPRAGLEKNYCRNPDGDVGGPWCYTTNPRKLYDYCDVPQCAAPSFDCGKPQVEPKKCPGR
Chain of Plasminogen (Homo sapiens) (P00747 581-810 limits assumed): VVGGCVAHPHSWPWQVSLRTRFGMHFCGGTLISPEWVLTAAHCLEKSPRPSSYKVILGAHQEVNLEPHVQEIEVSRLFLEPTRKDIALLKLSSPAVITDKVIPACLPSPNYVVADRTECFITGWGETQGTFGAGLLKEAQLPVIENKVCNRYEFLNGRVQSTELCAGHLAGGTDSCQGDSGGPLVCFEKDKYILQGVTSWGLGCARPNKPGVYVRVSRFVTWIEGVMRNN
Chain of Coagulation factor X (Homo sapiens) (P00742 41-179 limits assumed): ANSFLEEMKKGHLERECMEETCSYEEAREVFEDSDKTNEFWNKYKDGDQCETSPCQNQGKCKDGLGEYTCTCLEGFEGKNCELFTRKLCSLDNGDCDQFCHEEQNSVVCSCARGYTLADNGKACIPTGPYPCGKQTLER
Chain of Coagulation factor X (Homo sapiens) (P00742 235-488 limits assumed): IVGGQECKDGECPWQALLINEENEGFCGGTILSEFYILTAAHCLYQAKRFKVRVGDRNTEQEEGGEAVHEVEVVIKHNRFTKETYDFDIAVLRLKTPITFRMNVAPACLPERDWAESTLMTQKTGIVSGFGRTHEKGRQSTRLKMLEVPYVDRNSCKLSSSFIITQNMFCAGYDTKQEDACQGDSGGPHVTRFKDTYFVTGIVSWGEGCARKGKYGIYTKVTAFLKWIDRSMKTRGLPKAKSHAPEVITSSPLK
Chain of Coagulation factor XI (Homo sapiens) (P03951 19-387 limits assumed): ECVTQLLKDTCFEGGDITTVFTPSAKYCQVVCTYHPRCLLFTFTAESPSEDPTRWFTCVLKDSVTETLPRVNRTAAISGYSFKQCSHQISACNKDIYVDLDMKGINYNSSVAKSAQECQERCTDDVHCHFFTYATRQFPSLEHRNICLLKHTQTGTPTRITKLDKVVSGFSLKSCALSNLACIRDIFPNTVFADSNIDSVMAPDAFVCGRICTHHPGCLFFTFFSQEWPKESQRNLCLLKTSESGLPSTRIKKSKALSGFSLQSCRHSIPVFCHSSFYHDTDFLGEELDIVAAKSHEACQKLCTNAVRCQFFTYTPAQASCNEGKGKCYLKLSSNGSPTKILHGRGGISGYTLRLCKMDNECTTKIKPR
Chain of Coagulation factor XI (Homo sapiens) (P03951 388-625 limits assumed): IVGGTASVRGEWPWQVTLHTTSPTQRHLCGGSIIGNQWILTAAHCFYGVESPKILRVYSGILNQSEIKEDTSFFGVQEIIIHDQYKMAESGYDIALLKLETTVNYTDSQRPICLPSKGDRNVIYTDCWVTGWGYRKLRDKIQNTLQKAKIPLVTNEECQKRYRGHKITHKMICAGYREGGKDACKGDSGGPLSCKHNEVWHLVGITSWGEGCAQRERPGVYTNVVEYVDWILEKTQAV
Chain of Tissue-type plasminogen activator (Homo sapiens) (P00750 36-562 limits assumed): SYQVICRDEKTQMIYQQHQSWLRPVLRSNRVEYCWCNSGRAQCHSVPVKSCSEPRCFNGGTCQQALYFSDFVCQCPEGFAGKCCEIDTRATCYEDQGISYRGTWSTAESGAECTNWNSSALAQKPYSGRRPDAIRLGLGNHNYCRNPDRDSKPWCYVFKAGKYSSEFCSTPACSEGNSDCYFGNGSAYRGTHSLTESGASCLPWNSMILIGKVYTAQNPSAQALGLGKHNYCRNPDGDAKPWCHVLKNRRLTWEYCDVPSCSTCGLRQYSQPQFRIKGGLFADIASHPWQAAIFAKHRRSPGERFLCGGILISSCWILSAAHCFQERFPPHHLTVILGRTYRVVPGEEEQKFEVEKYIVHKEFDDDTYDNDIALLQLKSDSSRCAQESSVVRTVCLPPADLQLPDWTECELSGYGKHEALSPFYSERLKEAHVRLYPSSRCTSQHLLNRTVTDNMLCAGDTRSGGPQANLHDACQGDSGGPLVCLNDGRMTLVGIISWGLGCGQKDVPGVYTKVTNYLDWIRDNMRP

For CC(C)C[C@@H]1NC(=O)[C@H](CCC(N)=O)NC(=O)[C@H](CCCNC(=N)N)NC(=O)[C@@H]2CSCCC(=O)N3CN(CN(C3)C(=O)CCSC[C@@H](C(=O)N[C@@H](CCCNC(=N)N)C(=O)O)NC(=O)[C@H](CCCNC(=N)N)NC1=O)C(=O)CCSC[C@H](NC(=O)[C@H](N)CCCCNC(=N)N)C(=O)N[C@@H](Cc1ccccc1)C(=O)N[C@@H](CCCNC(=N)N)C(=O)N[C@@H](CC(C)C)C(=O)N1CCC[C@H]1C(=O)N2, the Ki (Coagulation factor XII) was 8.8 nM and the half-life at 10 µM [1] was 300 min.

With CC(C)C[C@@H]1NC(=O)[C@H](CCC(N)=O)NC(=O)[C@H](CCCNC(=N)N)NC(=O)[C@@H]2CSCCC(=O)N3CN(CN(C3)C(=O)CCSC[C@H](NC(=O)[C@@H](N)CCCNC(=N)N)C(=O)N[C@@H](Cc3ccccc3)C(=O)N[C@@H](CCCNC(=N)N)C(=O)N[C@@H](CC(C)C)C(=O)N3CCC[C@H]3C(=O)N2)C(=O)CCSC[C@@H](C(=O)N[C@@H](CCCNC(=N)N)C(=O)O)NC(=O)[C@H](CCCNC(=N)N)NC1=O the half-life at 10 µM [1] was 240 min, the inhibition (Homo sapiens [2]) was “Active” and the inhibition (Plasma kallikrein [3]) was “Active”. The 2aPTT (Plasma [4]) was 2.9 µM, the Activity (Plasma [4]) was “Dose-dependent effect” and the Activity (Plasma [5]) was “inactive”.

CC(C)C[C@@H]1NC(=O)[C@H](CCC(N)=O)NC(=O)[C@H](CCCNC(=N)N)NC(=O)[C@@H]2CSCCC(=O)N3CN(CN(C3)C(=O)CCSC[C@H](NC(=O)[C@@H](N)CCNC(=N)N)C(=O)N[C@@H](Cc3ccc(F)cc3)C(=O)N[C@@H](CCCNC(=N)N)C(=O)N[C@@H](CC(C)C)C(=O)N3CCC[C@H]3C(=O)N2)C(=O)CCSC[C@@H](C(=O)N[C@@H](CCCNC(=N)N)C(=O)O)NC(=O)[C@H](CCCNC(=N)N)NC1=O gave a Ki (Coagulation factor XII) of 1.63 nM, a half-life at 10 µM [1] of 960 min and an inhibition [6] of under 20%. It also gave an inhibition [7] of under 20%, an inhibition [8] of under 20% and an inhibition [9] of under 20%. It also gave an inhibition [10] of under 20%, an inhibition [11] of under 20% and an inhibition [12] of under 20%. The inhibition (Homo sapiens [2]) was over 50%, the inhibition (Plasma kallikrein [3]) was over 50% and the Selectivity ratio (Homo sapiens [13]) was 800. The Selectivity ratio (Homo sapiens [14]) was 27000, the Selectivity ratio (Homo sapiens [15]) was 27000 and the Selectivity ratio (Homo sapiens [16]) was 27000. It also gave a Selectivity ratio (Homo sapiens [17]) of 27000, a Selectivity ratio (Homo sapiens [18]) of 27000 and a Selectivity ratio (Homo sapiens [19]) of 27000. For the same compound, the Selectivity ratio (Homo sapiens [20]) was 27000, the Selectivity ratio (Homo sapiens [21]) was 27000 and the 2aPTT (Plasma [4]) was 2 µM. For the same compound, the Activity (Plasma [4]) was “Dose-dependent effect”, the Ki [22] was 1300 nM and the Ki (Plasma kallikrein [23]) was 45.1 µM. For the same compound, the Activity (Plasma [5]) was “inactive”.

For CC(C)C[C@@H]1NC(=O)[C@H](CCC(N)=O)NC(=O)[C@H](CCCNC(=N)N)NC(=O)[C@@H]2CSCCC(=O)N3CN(CN(C3)C(=O)CCSC[C@@H](C(=O)N[C@@H](CCCNC(=N)N)C(=O)O)NC(=O)[C@H](CCCNC(=N)N)NC1=O)C(=O)CCSC[C@H](NC(=O)[C@H](N)CCNC(=N)N)C(=O)N[C@@H](Cc1ccccc1)C(=O)N[C@@H](CCCNC(=N)N)C(=O)N[C@@H](CC(C)C)C(=O)N1CCC[C@H]1C(=O)N2, the Ki (Coagulation factor XII) was 14 nM and the half-life at 10 µM [1] was 1320 min.

For CC(C)C[C@@H]1NC(=O)[C@H](CCC(N)=O)NC(=O)[C@H](CCCNC(=N)N)NC(=O)[C@@H]2CSCCC(=O)N3CN(CN(C3)C(=O)CCSC[C@@H](C(=O)N[C@@H](CCCNC(=N)N)C(=O)O)NC(=O)[C@H](CCCNC(=N)N)NC1=O)C(=O)CCSC[C@H](NC(=O)[C@H](N)CCCCCN)C(=O)N[C@@H](Cc1ccccc1)C(=O)N[C@@H](CCCNC(=N)N)C(=O)N[C@@H](CC(C)C)C(=O)N1CCC[C@H]1C(=O)N2, the Ki (Coagulation factor XII) was 6.5 nM and the half-life at 10 µM [1] was 120 min.

For CC(C)C[C@@H]1NC(=O)[C@H](CCC(N)=O)NC(=O)[C@H](CCCNC(=N)N)NC(=O)[C@@H]2CSCCC(=O)N3CN(CN(C3)C(=O)CCSC[C@H](NC(=O)[C@@H](N)CCCNC(=N)N)C(=O)N[C@@H](Cc3ccc(F)cc3)C(=O)N[C@@H](CCCNC(=N)N)C(=O)N[C@@H](CC(C)C)C(=O)N3CCC[C@H]3C(=O)N2)C(=O)CCSC[C@@H](C(=O)N[C@@H](CCCNC(=N)N)C(=O)O)NC(=O)[C@H](CCCNC(=N)N)NC1=O, the Ki (Coagulation factor XII) was 0.84 nM, the inhibition (Homo sapiens [2]) was “Active” and the inhibition (Plasma kallikrein [3]) was “Active”. For the same compound, the 2aPTT (Plasma [4]) was 1.6 µM, the Activity (Plasma [4]) was “Dose-dependent effect” and the Activity (Plasma [5]) was “inactive”.

With CC(C)C[C@@H]1NC(=O)[C@H](CCC(N)=O)NC(=O)[C@H](CCCNC(=N)N)NC(=O)[C@@H]2CSCCC(=O)N3CN(CN(C3)C(=O)CCSC[C@@H](C(=O)N[C@@H](CCCNC(=N)N)C(=O)O)NC(=O)[C@H](CCCNC(=N)N)NC1=O)C(=O)CCSC[C@H](NC(=O)[C@H](N)Cc1ccc(NC(=N)N)cc1)C(=O)N[C@@H](Cc1ccccc1)C(=O)N[C@@H](CCCNC(=N)N)C(=O)N[C@@H](CC(C)C)C(=O)N1CCC[C@H]1C(=O)N2 the Ki (Coagulation factor XII) was 15 nM and the half-life at 10 µM [1] was 780 min.

In the case of CC[C@H](C)[C@@H]1NC(=O)[C@@H](NC(=O)[C@@H](N)CCCNC(=N)N)CSCCC(=O)N2CN3CN(C2)C(=O)CCSC[C@H](NC(=O)[C@@H]2CCCN2C(=O)[C@H](CC(C)C)NC(=O)[C@H](CCCNC(=N)N)NC1=O)C(=O)N[C@@H](CCCNC(=N)N)C(=O)N[C@@H](CCC(N)=O)C(=O)N[C@@H](CC(C)C)C(=O)N[C@@H](CCCNC(=N)N)C(=O)N[C@H](C(=O)N[C@@H](CCCNC(=N)N)C(=O)N[C@@H](Cc1c[nH]c2ccccc12)C(=O)O)CSCCC3=O (H-RCIRLPCRQLRCRW-OH; linker 2-7-12 via TATA), the Ki (Coagulation factor XII) is reported as 310 nM.
